pIC50: −log10 of the molar value. Converted amounts (≈) assume the structure as drawn.
How the values were obtained:
U-937 = assay: Cytotoxicity against human U937 cells after 48 hrs by MTT assay; format: functional, cell-based; details: U-937, 48 h
A549 [1] = assay: Cytotoxicity against human A549 cells after 48 hrs by MTT assay; format: functional, cell-based; details: A549, 48 h
HeLa [2] = assay: Cytotoxicity against human HeLa cells after 48 hrs by MTT assay; format: functional, cell-based
MDA-MB-435 = assay: Cytotoxicity against human MDA-MB-435 cells after 72 hrs by MTT assay; format: functional, cell-based; details: MDA-MB-435, 72 h
COLO 205 [3] = assay: Cytotoxicity against human COLO205 cells after 72 hrs by MTT assay; format: functional, cell-based; details: COLO 205, 72 h
HeLa [4] = assay: Cytotoxicity against human HeLa cells assessed as reduction in cell viability after 24 hrs by MTT assay; format: functional, cell-based
NCI-H460 = assay: Cytotoxicity against human NCI-H460 cells after 24 hrs by MTT assay; format: functional, cell-based; details: NCI-H460, 24 h
MCF7 [5] = assay: Cytotoxicity against human MCF7 cells after 24 hrs by MTT assay; format: functional, cell-based; details: MCF7, 24 h
HepG2 [6] = assay: Cytotoxicity against human HepG2 cells after 24 hrs by MTT assay; format: functional, cell-based; details: HepG2, 24 h
HCT-116 = assay: Cytotoxicity against human p53 positive HCT116 cells assessed as reduction in cell viability after 48 hrs by MTT assay; format: functional; details: HCT-116, 48 h, read-out: LD50 (the source's name)
COLO 205 [7] = assay: Antiproliferative activity against human COLO205 cells assessed as reduction in cell viability after 48 hrs by MTT assay; format: functional, cell-based; details: COLO 205, 48 h
BHY = assay: Antiproliferative activity against human BHY cells assessed as reduction in cell viability after 48 hrs by MTT assay; format: functional, cell-based
A549 [8] = assay: Antiproliferative activity against human A549 cells assessed as reduction in cell viability after 48 hrs by MTT assay; format: functional, cell-based; details: A549, 48 h
MIA PaCa-2 = assay: Antiproliferative activity against human MIAPaCa2 cells assessed as reduction in cell viability after 48 hrs by MTT assay; format: functional, cell-based; details: MIA PaCa-2, 48 h
MCF7 [9] = assay: Antiproliferative activity against human MCF7 cells assessed as reduction in cell viability after 48 hrs by MTT assay; format: functional, cell-based; details: MCF7, 48 h
L1210 = assay: Cytotoxicity against mouse L1210 cells assessed as reduction in cell viability after 48 hrs by MTT assay; format: functional, cell-based; details: L1210, 48 h
P388 [10] = assay: Cytotoxicity against mouse P388 cells assessed as reduction in cell viability after 48 hrs by MTT assay; format: functional, cell-based; details: P388, 48 h
HT-29 [11] = assay: Cytotoxicity against human HT-29 cells assessed as reduction in cell viability after 48 hrs by MTT assay; format: functional, cell-based; details: HT-29, 48 h
A549 [12] = assay: Cytotoxicity against human A549 cells assessed as reduction in cell viability after 48 hrs by MTT assay; format: functional, cell-based; details: A549, 48 h
MCF7 [13] = assay: (§1) Cytotoxicity against human MCF7 cells; format: functional, cell-based
SK-MEL-2 = assay: Cytotoxicity against human SK-MEL-2 cells; format: functional, cell-based
KB [14] = assay: (§2) Cytotoxicity against human KB cells; format: functional, cell-based
LNCaP = assay: Cytotoxicity against human LNCAP cells; format: functional, cell-based
HepG2 [15] = assay: Cytotoxicity against human HepG2 cells; format: functional, cell-based
[16] = Cytotoxicity against human 95-D cells assessed as reduction in cell viability after 24 hrs by MTT assay; format: functional, cell-based
[17] = Cytotoxicity against human QGY cells assessed as reduction in cell viability after 24 hrs by MTT assay; format: functional, cell-based
[18] = Cytotoxicity against human HO8910 cells assessed as reduction in cell viability after 24 hrs by MTT assay; format: functional, cell-based; details: HO-8910, 24 h
HT-29 [19] = assay: Cytotoxicity against human HT-29 cells; format: functional; details: read-out: ED50 (the source's name)
[20] = Cytotoxicity against rat pancreatic tumour cells assessed as reduction in cell viability after 24 hrs by MTT assay; format: functional, cell-based
KB [21] = assay: as §2; format: functional; details: read-out: ED50 (the source's name)
BE(2)-C = assay: Induction of apoptosis in human BE(2)-C cells assessed as apoptotic cells at 300 uM after 72 hrs by Annexin V-FITC/propidium iodide staining based flow cytometric analysis relative to control; format: functional
[22] = Growth inhibition of human A375P cells at 150 uM after 72 hrs by MTT assay relative to control; format: functional; details: read-out: GI
SK-N-DZ = assay: Induction of apoptosis in human SK-N-DZ cells assessed as apoptotic cells at 300 uM after 72 hrs by Annexin V-FITC/propidium iodide staining based flow cytometric analysis relative to control; format: functional
[23] = Growth inhibition of human A375M cells at 150 uM after 72 hrs by MTT assay relative to control; format: functional; details: read-out: GI
[24] = Induction of apoptosis in human SH-EP1 cells assessed as apoptotic cells at 300 uM after 72 hrs by Annexin V-FITC/propidium iodide staining based flow cytometric analysis relative to control; format: functional
P388 [25] = assay: Cytotoxicity against mouse P388 cells; format: functional; details: read-out: ED50 (the source's name)
Lymphocyte = assay: Induction of apoptosis in human Lymphocyte cells assessed as apoptotic cells at 2 ug/ml after 24 hrs by Annexin V-FITC/propidium iodide staining based fluorescence microscopic method relative to control; format: cell-based
MCF7 [26] = assay: as §1; format: functional; details: read-out: ED50 (the source's name)
SK-N-AS = assay: Induction of apoptosis in human SK-N-AS cells assessed as apoptotic cells at 300 uM after 72 hrs by Annexin V-FITC/propidium iodide staining based flow cytometric analysis relative to control; format: functional
[27] = Cytotoxicity against human 95-D cells by SRB assay; format: functional, cell-based
[28] = Cytotoxicity against human YD-10B cells assessed as reduction in cell viability after 48 hr by MTT asssay; format: functional, cell-based
SW-620 = assay: Antitumour activity against human SW620 cells xenografted in mouse assessed as inhibition of tumour growth at 60 mg/kg relative to control; format: functional; details: read-out: TGI

C=C1C(=O)O[C@H]2[C@H]1[C@@H](OC(=O)C(C)C)CC(C)=C1C[C@@H]3O[C@]3(C)[C@@H]12
IC50 (U-937): 16 to 43.5 µg/mL (≈ 48.1 to 131 µM) | IC50 (A549 [1]): 16 to 43.5 µg/mL (≈ 48.1 to 131 µM) | IC50 (HeLa [2]): 16 to 43.5 µg/mL (≈ 48.1 to 131 µM)

C=C1C(=O)O[C@H]2[C@H]1[C@@H](O)C[C@]1(C)O[C@@]13C(=O)C=C(C)[C@H]23
pIC50 (MDA-MB-435): 5.00 to 5.15 | pIC50 (COLO 205 [3]): 5.00 to 5.15

C=C1C(=O)O[C@@H]2C[C@@]3(C)CCCC(=C)[C@@H]3C[C@H]12 [ISOALANTOLACTONE]
pIC50 (HeLa [4]): 5.09

CC1=CC(=O)C2=C(C)C[C@@H](O[C@@H]3O[C@H](CO)[C@@H](O)[C@H](O)[C@H]3O)[C@@H]3[C@@H](OC(=O)[C@H]3C)[C@@H]12
pIC50 (NCI-H460): 4.31 to 4.57 | pIC50 (MCF7 [5]): 4.31 to 4.57 | pIC50 (HepG2 [6]): 4.31 to 4.57

CCCCCCCCCCCCCCCCCCCCCCOC(=O)/C=C/c1ccc(O)cc1
CC50 (HCT-116): 33.8 µM

C=C(C)[C@@H]1CC[C@]2(C)CC[C@]3(C)[C@H](CC[C@@H]4[C@@]5(C)CC[C@H](O)C(C)(C)[C@@H]5CC[C@]43C)[C@@H]12 [LUPEOL]
pIC50 (COLO 205 [7]): 4.06 to 4.60 | pIC50 (BHY): 4.06 to 4.60 | pIC50 (A549 [8]): 4.06 to 4.60 | pIC50 (MIA PaCa-2): 4.06 to 4.60 | pIC50 (MCF7 [9]): 4.06 to 4.60

C[C@H]1[C@@H](O[C@@H](C#N)c2ccc(Br)cc2)O[C@@H]2O[C@@]3(C)CC[C@H]4[C@H](C)CC[C@@H]1[C@@]24OO3
pIC50 (L1210): 6.31 to 8.00 | pIC50 (P388 [10]): 6.31 to 8.00 | pIC50 (HT-29 [11]): 6.31 to 8.00 | pIC50 (A549 [12]): 6.31 to 8.00

C=C1C(=O)O[C@H]2[C@H]1CC[C@@](C)(O)C1=C[C@@H](O)[C@@](C)(O)[C@@H]12
pIC50 (MCF7 [13]): < 4.00 | pIC50 (SK-MEL-2): < 4.00 | pIC50 (KB [14]): < 4.00 | pIC50 (LNCaP): < 4.00 | pIC50 (HepG2 [15]): < 4.00

C=CC(=C)CC/C=C(/CCC=C(C)C)COC(C)=O
pIC50 [16]: 4.13 to 4.75 | pIC50 (HeLa [4]): 4.13 to 4.75 | pIC50 [17]: 4.13 to 4.75 | pIC50 [18]: 4.13 to 4.75

C[C@H]1[C@@H](O[C@H](C#N)c2ccc(Br)cc2)O[C@@H]2O[C@@]3(C)CC[C@H]4[C@H](C)CC[C@@H]1[C@@]24OO3
pIC50 (L1210): 6.31 to 8.00 | pIC50 (P388 [10]): 6.31 to 8.00 | pIC50 (HT-29 [11]): 6.31 to 8.00 | pIC50 (A549 [12]): 6.31 to 8.00

C[C@@H]1CC[C@H]2[C@@H](C)C(=O)O[C@@H]3O[C@@]4(C)CC[C@@H]1[C@]32OO4 [ARTEMISININ]
EC50 (HT-29 [19]): 1.25 to 9.62 µg/mL (≈ 4.43 to 34.1 µM) | pIC50 [20]: 4.35 | EC50 (KB [21]): 1.25 to 9.62 µg/mL (≈ 4.43 to 34.1 µM) | Activity (BE(2)-C): 42% | inhibition of growth at 150 µM [22]: 68% | Activity (SK-N-DZ): 40% | inhibition of growth at 150 µM [23]: 60% | Activity [24]: 23% | EC50 (P388 [25]): 1.25 to 9.62 µg/mL (≈ 4.43 to 34.1 µM) | Activity (Lymphocyte): 70% | EC50 (MCF7 [26]): 1.25 to 9.62 µg/mL (≈ 4.43 to 34.1 µM) | Activity (SK-N-AS): 22%

CC1(C)CCC[C@@]2(C)[C@H]1[C@H](O)C=C1COC(=O)[C@@]12O [STROBILACTONE A]
pIC50 [27]: 4.70

C[C@H]1[C@@H](CCNC(=O)CC[C@H](NC(=O)CC[C@H]2O[C@@H]3O[C@@]4(C)CC[C@H]5[C@H](C)CC[C@@H]([C@H]2C)[C@@]35OO4)C(=O)NCC[C@H]2O[C@@H]3O[C@@]4(C)CC[C@H]5[C@H](C)CC[C@@H]([C@H]2C)[C@@]35OO4)O[C@@H]2O[C@@]3(C)CC[C@H]4[C@H](C)CC[C@@H]1[C@@]24OO3
pIC50 [28]: 5.22

COc1cc(-c2cc(=O)c3c(O)c(O)c(OC)cc3o2)ccc1O
inhibition in vivo at 60 mg/kg (SW-620): 14.6%

From ChEMBL document CHEMBL4342436, “Artemisia: a promising plant for the treatment of cancer” (Bioorg Med Chem, 2020)
